Measurements from patent US9504675B2, “Alpha-ketoheterocycles and methods of making and using” (The Scripps Research Institute, priority 2011, dated 2016).
Like-named read-outs stand apart in the source and are kept apart here.

Molecular target: T1, recombinant rat FAAH (rFAAH) (Rattus norvegicus, UniProt P97612)
T1 construct: The truncated rat FAAH (rFAAH) was expressed in E. coli and purified; made in house; host or cells: Escherichia coli
T1 sequence (P97612 30-579 limits assumed): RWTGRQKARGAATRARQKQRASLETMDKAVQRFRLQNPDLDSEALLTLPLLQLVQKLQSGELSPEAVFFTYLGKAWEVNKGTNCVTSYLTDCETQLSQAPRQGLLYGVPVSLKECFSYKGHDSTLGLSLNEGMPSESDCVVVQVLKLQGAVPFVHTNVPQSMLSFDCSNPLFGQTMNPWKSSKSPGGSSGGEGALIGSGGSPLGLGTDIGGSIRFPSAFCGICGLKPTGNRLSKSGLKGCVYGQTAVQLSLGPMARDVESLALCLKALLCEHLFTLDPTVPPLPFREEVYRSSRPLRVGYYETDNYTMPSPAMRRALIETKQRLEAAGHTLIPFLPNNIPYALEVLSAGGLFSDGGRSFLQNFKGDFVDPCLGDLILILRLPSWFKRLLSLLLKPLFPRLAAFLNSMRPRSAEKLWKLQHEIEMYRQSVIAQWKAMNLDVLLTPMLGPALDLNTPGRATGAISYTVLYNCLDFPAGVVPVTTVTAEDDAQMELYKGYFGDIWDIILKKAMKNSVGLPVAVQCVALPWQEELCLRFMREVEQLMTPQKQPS
Assay: Enzyme assay: inhibition of purified recombinant rat FAAH, 14C-oleamide hydrolysis, Ki by Dixon plot
Assay type: biochemical
Description: Enzyme assays were performed at 20-23° C. with purified recombinant rat FAAH expressed in Escherichia coli or with solubilized COS-7 membrane extracts from cells transiently transfected with human FAAH cDNA (where specifically indicated) in a buffer of 125 mM Tris/1 mM EDTA/0.2% glycerol/0.02% Triton X-100/0.4 mM Hepes, pH 9.0.
^14C-labeled oleamide was prepared from ^14C-labeled oleic acid. The truncated rat FAAH (rFAAH) was expressed in E. coli and purified. The purified recombinant rFAAH was used in the inhibition assays unless otherwise indicated. The full-length human FAAH (hFAAH) was expressed in COS-7 cells as described, and the lysate of hFAAH-transfected COS-7 cells was used in the inhibition assays where explicitly indicated.
The inhibition assays were performed as follows. […] The enzyme reaction was terminated by transferring 20 μL of the reaction mixture to 500 μL of 0.1 N HCl at three different time points. The ^14C-labeled oleamide (substrate) and oleic acid (product) were extracted with EtOAc and analyzed by TLC as detailed. The Ki of the inhibitor was calculated using a Dixon plot as described (standard deviations are provided in the Supporting Information tables).

[1] = Ki, Table 2, (R)-enantiomer, 1,2,3,4-tetrahydronaphthalene C2 acyl side chain
[2] = Ki, Table 2, (S)-enantiomer, 1,2,3,4-tetrahydronaphthalene C2 acyl side chain
[3] = Ki, Table 3, tentatively assigned (S)-enantiomer, indane C2 acyl side chain
[4] = Ki, Table 3, (R)-enantiomer, indane C2 acyl side chain
[5] = Ki, Table 3, racemate (enantiomers not separable), indane C2 acyl side chain
[6] = Ki, Table 4, (R)-enantiomer, additional FAAH inhibitors

With `COC(=O)c1cccc(-c2cnc(C(=O)C3CCc4cc(-c5ccccc5)ccc4C3)o2)n1` (single isomer, unassigned) [(R)-7, Methyl 6-(2-(6-Phenyl-1,2,3,4-tetrahydronaphthalene-2-carbonyl)oxazol-5-yl)picolinate] the Ki [1] was 700 nM.
`N#Cc1cnc(C(=O)C2CCc3cc(-c4ccccc4)ccc3C2)o1` (single isomer, unassigned) [(S)-5, 2-(6-Phenyl-1,2,3,4-tetrahydronaphthalene-2-carbonyl)oxazole-5-carbonitrile] showed a Ki [2] of 3.4 nM.
Work on `O=C(c1ncco1)C1Cc2ccccc2C1` [Compound 39, (Indan-2-yl)(oxazol-2-yl)methanone] yielded a Ki (Table 4, meso indane derivatives without aryl substituent, read-out: Ki) of 7100 nM.
Work on `O=C(c1ncc(-c2ccccn2)o1)C1CCc2cc(OCc3ccccc3)ccc2C1` (single isomer, unassigned) [(S)-18, (6-(Benzyloxy)-1,2,3,4-tetrahydronaphthalen-2-yl)(5-(pyridin-2-yl)oxazol-2-yl)methanone] yielded a Ki [2] of 3.2 nM.
With `O=C(c1ncco1)C1CCc2ccccc2C1` (stereo not shown) [Compound 37, Oxazol-2-yl(1,2,3,4-tetrahydronaphthalen-2-yl)methanone] the “improvement in potency relative to the corresponding oxazole 9” value ((S)-enantiomer) was 4-5 fold, the Ki (Ki, first of the two enantiomers, text b169, enantiomer distinction 5.1 vs 12 μM) was 5100 nM and the Ki (Ki, second of the two enantiomers, text b169, enantiomer distinction 5.1 vs 12 μM) was 12000 nM. The “potency of more active (S)-enantiomer over (R)-enantiomer” value (ratio of FAAH inhibition between enantiomers) was “ca. 2 fold”.
Compound `O=C(O)c1cccc(-c2cnc(C(=O)C3Cc4ccc(Oc5ccccc5)cc4C3)o2)n1` (single isomer, unassigned) [(S)-29, 6-(2-(5-Phenoxyindane-2-carbonyl)oxazol-5-yl)picolinic acid] has a Ki [3] of 71 nM.
For `O=C(c1ncc(-c2ccccn2)o1)C1Cc2ccc(Oc3ccccc3)cc2C1` (single isomer, unassigned) [(R)-27, (5-Phenoxyindan-2-yl)(5-(pyridin-2-yl)oxazol-2-yl)methanone], the Ki [4] was 42 nM.
Work on `COC(=O)c1cccc(-c2cnc(C(=O)C3CCc4cc(-c5ccccc5)ccc4C3)o2)n1` (single isomer, unassigned) [(S)-7, Methyl 6-(2-(6-Phenyl-1,2,3,4-tetrahydronaphthalene-2-carbonyl)oxazol-5-yl)picolinate] yielded a Ki [2] of 27 nM.
`N#Cc1cnc(C(=O)C2CCc3cc(OCc4ccccc4)ccc3C2)o1` (single isomer, unassigned) [(S)-17, 2-(6-(Benzyloxy)-1,2,3,4-tetrahydronaphthalene-2-carbonyl)oxazole-5-carbonitrile] was tested, and the Ki [2] was 3.2 nM.
With `O=C(c1ncco1)C1Cc2ccc(-c3ccccc3)cc2C1` (single isomer, unassigned) [(S)-22, Oxazol-2-yl(5-phenylindan-2-yl)methanone] the Ki [3] was 27 nM.
`O=C(c1ncco1)C1Cc2ccc(-c3ccccc3)cc2C1` (single isomer, unassigned) [(R)-22, Oxazol-2-yl(5-phenylindan-2-yl)methanone] was tested, and the Ki [4] was 140 nM.
For `O=C(c1ncco1)C1Cc2ccc(Oc3ccccc3)cc2C1` (single isomer, unassigned) [(S)-26, Oxazol-2-yl(5-phenoxyindan-2-yl)methanone], the Ki [3] was 10 nM.
For `O=C(O)c1cccc(-c2cnc(C(=O)C3Cc4ccc(-c5ccccc5)cc4C3)o2)n1` (racemic) [Compound 25, 6-[2-(5-Phenylindane-2-carbonyl)oxazol-5-yl]pyridine-2-carboxylic Acid], the Ki [5] was 57 nM.
`O=C(c1ncco1)C1CCc2cc(-c3ccccc3)ccc2C1` (single isomer, unassigned) [(R)-3, Oxazol-2-yl(6-phenyl-1,2,3,4-tetrahydronaphthalen-2-yl)methanone] was tested, and the Ki [1] was 460 nM.
In the case of `COC(=O)c1nnc(C(=O)C2CCc3cc(Oc4ccccc4)ccc3C2)o1` (single isomer, unassigned) [(R)-35, Methyl 5-(6-Phenoxy-1,2,3,4-tetrahydronaphthalene-2-carbonyl)-[1,3,4]oxadiazole-2-carboxylate], the Ki [6] is reported as 1.6 nM.
With `O=C(c1ncco1)C1CCc2cc(OCc3ccccc3)ccc2C1` (single isomer, unassigned) [(S)-15, (6-(Benzyloxy)-1,2,3,4-tetrahydronaphthalen-2-yl)(oxazol-2-yl)methanone] the Ki [2] was 6.1 nM.
Compound `O=C(O)c1cccc(-c2cnc(C(=O)C3CCc4cc(Oc5ccccc5)ccc4C3)o2)n1` (single isomer, unassigned) [(R)-14, 6-(2-(6-Phenoxy-1,2,3,4-tetrahydronaphthalene-2-carbonyl)oxazol-5-yl)picolinic acid] has a Ki [1] of 220 nM.
For `O=C(c1ncco1)C1CCc2cc(Oc3ccccc3)ccc2C1` (single isomer, unassigned) [(S)-9, Oxazol-2-yl(6-phenoxy-1,2,3,4-tetrahydronaphthalen-2-yl)methanone], the Ki [2] was 2.2 nM.
For `COC(=O)c1cccc(-c2cnc(C(=O)C3Cc4ccc(-c5ccccc5)cc4C3)o2)n1` (racemic) [Compound 24, Methyl 6-[2-(5-Phenylindane-2-carbonyl)oxazol-5-yl]pyridine-2-carboxylate], the Ki [5] was 6.2 nM.
With `O=C(c1ncc(-c2ccccn2)o1)C1CCc2cc(Oc3ccccc3)ccc2C1` (single isomer, unassigned) [(S)-12, (6-Phenoxy-1,2,3,4-tetrahydronaphthalen-2-yl)(5-(pyridin-2-yl)oxazol-2-yl)methanone] the Ki [2] was 4.4 nM.
`COC(=O)c1cccc(-c2cnc(C(=O)C3Cc4ccc(OCc5ccccc5)cc4C3)o2)n1` (single isomer, unassigned) [(S)-32, Methyl 6-(2-(5-(Benzyloxy)indane-2-carbonyl)oxazol-5-yl)picolinate] was tested, and the Ki [3] was 5.8 nM.
`O=C(c1ncc(-c2ccccn2)o1)C1Cc2ccc(OCc3ccccc3)cc2C1` (single isomer, unassigned) [(R)-31, (5-(Benzyloxy)indan-2-yl)(5-(pyridin-2-yl)oxazol-2-yl)methanone] showed a Ki [4] of 110 nM.
`O=C(c1ncco1)C1Cc2ccc(OCc3ccccc3)cc2C1` (racemic) [Compound 30, (5-(Benzyloxy)indan-2-yl)(oxazol-2-yl)methanone] was tested, and the Ki (Table 3, racemate (enantiomers not separable), indane C2 acyl side chain, read-out: Ki) was 24 nM.
`COC(=O)c1nnc(C(=O)C2CCc3cc(Oc4ccccc4)ccc3C2)o1` (single isomer, unassigned) [(S)-35, Methyl 5-(6-Phenoxy-1,2,3,4-tetrahydronaphthalene-2-carbonyl)-[1,3,4]oxadiazole-2-carboxylate] showed a Ki (Ki, Table 4, (S)-enantiomer, additional FAAH inhibitors) of 1.5 nM.
`COC(=O)c1cnc(C(=O)C2CCc3cc(-c4ccccc4)ccc3C2)o1` (single isomer, unassigned) [(S)-4, Methyl 2-(6-Phenyl-1,2,3,4-tetrahydronaphthalene-2-carbonyl)oxazole-5-carboxylate] showed a Ki [2] of 55 nM.
`O=C(c1ncc(-c2ccccn2)o1)C1CCc2cc(-c3ccccc3)ccc2C1` (single isomer, unassigned) [(S)-6, (6-Phenyl-1,2,4-tetrahydronaphthalen-2-yl)(5-(pyridin-2-yl)oxazol-2-yl)methanone] showed a Ki [2] of 7.2 nM.
In the case of `COC(=O)c1cccc(-c2cnc(C(=O)C3Cc4ccc(OCc5ccccc5)cc4C3)o2)n1` (single isomer, unassigned) [(R)-32, Methyl 6-(2-(5-(Benzyloxy)indane-2-carbonyl)oxazol-5-yl)picolinate], the Ki [4] is reported as 130 nM.
`COC(=O)c1cnc(C(=O)C2CCc3cc(OCc4ccccc4)ccc3C2)o1` (single isomer, unassigned) [(S)-16, Methyl 2-(6-(Benzyloxy)-1,2,3,4-tetrahydronaphthalene-2-carbonyl)oxazole-5-carboxylate] was tested, and the Ki [2] was 2.9 nM.
For `O=C(c1ncco1)C1CCc2cc(-c3ccccc3)ccc2C1` (single isomer, unassigned) [(S)-3, Oxazol-2-yl(6-phenyl-1,2,3,4-tetrahydronaphthalen-2-yl)methanone], the Ki [2] was 57 nM.
With `O=C(c1ncc(-c2ccccn2)o1)C1CCc2cc(-c3ccccc3)ccc2C1` (single isomer, unassigned) [(R)-6, (6-Phenyl-1,2,4-tetrahydronaphthalen-2-yl)(5-(pyridin-2-yl)oxazol-2-yl)methanone] the Ki [1] was 240 nM.
`O=C(c1ncco1)C1CCc2ccccc2C1` (single isomer, unassigned) [(R)-37, Oxazol-2-yl(1,2,3,4-tetrahydronaphthalen-2-yl)methanone] showed a Ki [6] of 12000 nM.
